# Measured values published in patent publication US12077503B2, “Substituted cyclic amides and their use as herbicides” (FMC CORPORATION, priority 2015, dated 2024).
# How the values were obtained:
# Format in all cases: in vivo
# [1] = test system: barnyardgrass (Echinochloa crus-galli); assay: Test C flooded paddy test; conditions: Flood; for Plant response rating (scale of 0 to 100), Barnyardgrass: 0 is no effect, 100 is complete control
# Description: (§1) Plant species in the flooded paddy test consisted of rice (Oryza sativa), sedge, umbrella (small-flower umbrella sedge, Cyperus difformis), ducksalad (Heteranthera limosa), and barnyardgrass (Echinochloa crus-galli) grown to the 2-leaf stage for testing. At time of treatment, test pots were flooded to 3 cm above the soil surface, treated by application of test compounds directly to the paddy water, and then maintained at that water depth for the duration of the test. Treated plants and controls were maintained in a greenhouse for 13 to 15 d, after which time all species were compared to controls and visually evaluated. Plant response ratings, summarized in Table C, are based on a scale of 0 to 100 where 0 is no effect and 100 is complete control. A dash (-) response means no test result.
# [2] = test system: ducksalad (Heteranthera limosa); assay: Test C flooded paddy test; conditions: Flood; for Plant response rating (scale of 0 to 100), Ducksalad: 0 is no effect, 100 is complete control
# Description: as §1
# [3] = test system: sedge, umbrella (small-flower umbrella sedge, Cyperus difformis); assay: Test C flooded paddy test; conditions: Flood; for Plant response rating (scale of 0 to 100), Sedge, Umbrella: 0 is no effect, 100 is complete control
# Description: as §1
# rice (Oryza sativa) = assay: Test C flooded paddy test; conditions: Flood; for Plant response rating (scale of 0 to 100), Rice: 0 is no effect, 100 is complete control
# Description: as §1
# [4] = test system: giant foxtail (Setaria faberii); assay: Test A postemergence; conditions: postemergence, 0 to 100 scale (0 no effect, 100 complete control)
# In short: (§2)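 Seeds sprayed preemergence with a directed soil spray, or plants at 2 to 10 cm height and one- to two-leaf stage sprayed postemergence, with test chemicals in a non-phytotoxic solvent mixture containing surfactant, in loam soil–sand blend. Injury rated visually against untreated controls after about 10 d in greenhouse, 0 (no effect) to 100 (complete control).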
# [5] = test system: barnyardgrass (Echinochloa crus-galli); assay: Test A postemergence; conditions: postemergence, 0 to 100 scale (0 no effect, 100 complete control)
# In short: as §2
# [6] = test system: pigweed (Amaranthus retroflexus); assay: Test A postemergence; conditions: postemergence, 0 to 100 scale (0 no effect, 100 complete control)
# In short: as §2
# [7] = test system: ragweed (common ragweed, Ambrosia elatior); assay: Test A postemergence; conditions: postemergence, 0 to 100 scale (0 no effect, 100 complete control)
# In short: as §2
# [8] = test system: ryegrass, Italian (Italian ryegrass, Lolium multiflorum); assay: Test A postemergence; conditions: postemergence, 0 to 100 scale (0 no effect, 100 complete control)
# In short: as §2
# [9] = test system: blackgrass (Alopecurus myosuroides); assay: Test A postemergence; conditions: postemergence, 0 to 100 scale (0 no effect, 100 complete control)
# In short: as §2
# [10] = test system: Galium (catchweed bedstraw, Galium aparine); assay: Test A postemergence; conditions: postemergence, 0 to 100 scale (0 no effect, 100 complete control)
# In short: as §2
# corn (Zea mays) = assay: Test A postemergence; conditions: postemergence, 0 to 100 scale (0 no effect, 100 complete control)
# In short: as §2
# [11] = test system: wheat (Triticum aestivum); assay: Test A postemergence; conditions: postemergence, 0 to 100 scale (0 no effect, 100 complete control)
# In short: as §2
# Kochia (Kochia scoparia) [12] = assay: Test A postemergence; conditions: postemergence, 0 to 100 scale (0 no effect, 100 complete control)
# In short: as §2
# [13] = test system: barnyardgrass (Echinochloa crus-galli); assay: Test B flooded paddy test; conditions: Flood, 250 g ai/ha; 0 to 100 scale where 0 is no effect and 100 is complete control; 13 to 15 d
# In short: (§3)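 Evaluation by eye, against controls, occurred 13–15 d post-treatment in a greenhouse, using a 0 (no effect) to 100 (complete control) scale. Application was into the paddy water, 3 cm deep over the soil, on 2-leaf plants.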
# [14] = test system: ducksalad (Heteranthera limosa); assay: Test B flooded paddy test; conditions: Flood, 250 g ai/ha; 0 to 100 scale where 0 is no effect and 100 is complete control; 13 to 15 d
# In short: as §3
# rice (Oryra sativa) = assay: Test B flooded paddy test; conditions: Flood, 250 g ai/ha; 0 to 100 scale where 0 is no effect and 100 is complete control; 13 to 15 d
# In short: as §3
# [15] = test system: sedge, umbrella (small-flower umbrella sedge, Cyperus difformis); assay: Test B flooded paddy test; conditions: Flood, 250 g ai/ha; 0 to 100 scale where 0 is no effect and 100 is complete control; 13 to 15 d
# In short: as §3
# [16] = test system: giant foxtail (Setaria faberii); assay: Test A preemergence
# In short: as §2
# [17] = test system: barnyardgrass (Echinochloa crus-galli); assay: Test A preemergence
# In short: as §2
# [18] = test system: pigweed (Amaranthus retroflexus); assay: Test A preemergence
# [19] = test system: ragweed (common ragweed, Ambrosia elatior); assay: Test A preemergence
# In short: as §2
# [20] = test system: ryegrass, Italian (Italian ryegrass, Lolium multiflorum); assay: Test A preemergence
# In short: as §2
# Kochia (Kochia scoparia) [21] = assay: Test A preemergence
# In short: as §2
# [22] = 31 g ai/ha, scale 0 to 100 (0 no effect, 100 complete control), 13 to 15 d
# [23] = 125 g ai/ha, visual rating after approx. 10 d
# [24] = 500 g ai/ha, visual injury, approx. 10 d
# [25] = 125 g ai/ha, Preemergence, visual injury after approximately 10 d, 0 to 100 scale where 0 is no effect and 100 is complete control
# [26] = 500 g ai/ha, preemergence, 0 to 100 scale, 0 = no effect, 100 = complete control
smiles,measurement,setting,value
CN1CC(c2cc(F)cc(F)c2)C(C(=O)Nc2ccc(F)cc2F)C1=O (stereo not shown) [Compound 645],"Plant response rating, Barnyardgrass",[1]; [22],30
same,"Plant response rating (scale of 0 to 100), Barnyardgrass",[1]; 62 g ai/ha,40
same,"Plant response rating (scale of 0 to 100), Barnyardgrass",[1]; 125 g ai/ha,65
same,"Plant response rating (scale of 0 to 100), Barnyardgrass",[1]; 250 g ai/ha,75
same,"Plant response rating, Ducksalad",[2]; [22],30
same,"Plant response rating (scale of 0 to 100), Ducksalad",[2]; 62 g ai/ha,60
same,"Plant response rating (scale of 0 to 100), Ducksalad",[2]; 125 g ai/ha,80
same,"Plant response rating (scale of 0 to 100), Ducksalad",[2]; 250 g ai/ha,95
same,"Plant response rating, Sedge, Umbrella",[3]; [22],0
same,"Plant response rating (scale of 0 to 100), Sedge, Umbrella",[3]; 62 g ai/ha,0
same,"Plant response rating (scale of 0 to 100), Sedge, Umbrella",[3]; 125 g ai/ha,0
same,"Plant response rating (scale of 0 to 100), Sedge, Umbrella",[3]; 250 g ai/ha,0
same,"Plant response rating, Rice",rice (Oryza sativa); [22],0
same,"Plant response rating (scale of 0 to 100), Rice",rice (Oryza sativa); 62 g ai/ha,0
same,"Plant response rating (scale of 0 to 100), Rice",rice (Oryza sativa); 125 g ai/ha,0
same,"Plant response rating (scale of 0 to 100), Rice",rice (Oryza sativa); 250 g ai/ha,0
same,"Plant response rating, Foxtail, Giant",[4]; [23],90
same,"Plant response rating, Foxtail, Giant",[4]; [24],90
same,"Plant response rating, Barnyardgrass",[5]; [23],90
same,"Plant response rating, Barnyardgrass",[5]; [24],90
same,"Plant response rating, Pigweed",[6]; [23],0
same,"Plant response rating, Pigweed",[6]; [24],0
same,"Plant response rating, Ragweed",[7]; [23],10
same,"Plant response rating, Ragweed",[7]; [24],20
same,"Plant response rating, Ryegrass, Italian",[8]; [23],20
same,"Plant response rating, Ryegrass, Italian",[8]; [24],50
same,"Plant response rating, Blackgrass",[9]; [23],60
same,"Plant response rating, Blackgrass",[9]; [24],70
same,"Plant response rating, Galium",[10]; [23],50
same,"Plant response rating, Galium",[10]; [24],50
same,"Plant response rating, Corn",corn (Zea mays); [23],20
same,"Plant response rating, Corn",corn (Zea mays); [24],60
same,"Plant response rating, Wheat",[11]; [23],30
same,"Plant response rating, Wheat",[11]; [24],50
same,"Plant response rating, Kochia",Kochia (Kochia scoparia) [12]; [23],0
same,"Plant response rating, Kochia",Kochia (Kochia scoparia) [12]; [24],50
same,"Plant response rating, Barnyardgrass",[13],80
same,"Plant response rating, Ducksalad",[14],100
same,"Plant response rating, Rice",rice (Oryra sativa),0
same,"Plant response rating, Sedge, Umbrella",[15],0
same,"Plant response rating, Foxtail, Giant",[16]; [25],90
same,"Plant response rating, Foxtail, Giant",[16]; [26],90
same,"Plant response rating, Barnyardgrass",[17]; [25],90
same,"Plant response rating, Barnyardgrass",[17]; [26],90
same,"Plant response rating, Pigweed",[18]; [25],0
same,"Plant response rating, Pigweed",[18]; [26],50
same,"Plant response rating, Ragweed",[19]; [25],0
same,"Plant response rating, Ragweed",[19]; [26],20
same,"Plant response rating, Ryegrass, Italian",[20]; [25],20
same,"Plant response rating, Ryegrass, Italian",[20]; [26],60
same,"Plant response rating, Kochia",Kochia (Kochia scoparia) [21]; [25],0
same,"Plant response rating, Kochia",Kochia (Kochia scoparia) [21]; [26],60
